Literature values in US20200022949A1, “COMPOSITION AND METHOD FOR THE ALLEVIATION OF EFFECTS OF ALCOHOL CONSUMPTION” (Detoxicated Inc., priority 2018, published 2020).

Test system: non-alcoholic fatty liver disease
Conditions: patients with non-alcoholic fatty liver disease

Question: With O=C1c2c(O)cc(O)cc2O[C@H](c2cc(O)c(O)c(O)c2)[C@H]1O [DHM, dihydromyricetin] as the compound, how does the “liver health (levels of liver enzymes and inflammatory cytokines)” value read?
Answer: improve liver health
